Test results as given in article PMC9961652 (International Journal of Molecular Sciences, 2023).
Where two headings read alike, the source gives them in different places.

Legend:
washed human platelets = assay: Collagen-induced platelet aggregation, light transmission aggregometry (Born method); type: cell-based; conditions: for IC50: Homo sapiens; for IC50 / activity at 20 µM: Platelet; for activity at 20 µM: compound 20 µM, means ± SDs of three experiments, 100% = agonist alone
Experimental: Light transmission aggregometry, i.e., the Born method, was used to determine in vitro antiplatelet aggregation activity using collagen as the agonist for platelet aggregation. Collagen was selected as the agonist, since it is the most thrombogenic component of the subendothelial layer. Collagen also serves as a substrate for platelet adhesion and as an inducer of platelet activation.
All experiments using human blood from healthy volunteers were performed according to the protocols approved by the Institutional Review Board at Cincinnati Children’s Hospital Medical Center, Cincinnati, Ohio. Each volunteer was required to sign an informed consent form approved by the IRB. Procedures for drawing human blood, isolating platelet-rich plasma (PRP), and preparing washed platelet suspensions were the same as those previously reported. […] PRP was obtained by means of the centrifugation of blood at 1400 rpm for 15 min at room temperature. PRP was centrifuged at 4000 rpm for 10 min at room temperature, and the platelet pellet was resuspended in HEPES Tyrode’s solution (pH 7.4) without calcium. Platelets were counted using Hemavet 950FS (Drew Scientific, Oxford, CT, USA), and the count was adjusted to 2.5 × 10^8/mL for aggregation studies.
The in vitro antiplatelet activity of the compounds was assayed on washed human platelets using light transmission aggregometry. Platelet aggregation was performed using a 4-channel Lumi-aggregometer (Chronolog, PA, USA) at 37 °C and stirring speed of 900 rpm. A volume of 250 µL of washed human platelets (2.5 × 10^8/mL) was pre-warmed to 37 °C along with the compounds or DMSO (0.1%) for 2 min before the addition of agonists such as collagen, AA, U46619 (a stable synthetic analog of thromboxane A2), ADP, and thrombin. For ATP secretion, platelets were pre-incubated with a luciferin/luciferase kit (Chrono-lume®) for 30 s at 37 °C before the addition of the agonist. The reactions were allowed to proceed for at least 4 min, and the results of platelet aggregation and ATP secretion were determined using Aggrolink software. Platelet aggregation was expressed as the maximum change in the light transmission, where the 100% value corresponded to treatment with the agonist alone. Compounds were evaluated in triplicate at nine compound concentrations ranging from 50 µM to 1 µM.

RhoA = assay: RhoA-GTP formation, GST-Rhotekin effector pull-down assay in collagen-stimulated platelets; type: cell-based, human; conditions: 20 µM, 2 min pre-incubation; collagen 1 µg/mL for 4 min
Experimental: Next, the ability of the six compounds to suppress RhoA activity in platelets was assessed by subjecting them to a GST (Glutathione-S-transferase)-Rhotekin effector pull-down assay. The compounds were incubated with washed human platelets for 2 min before being stimulated with 1 µg/mL collagen. The analogs inhibited the activation of RhoA at the 20 µM concentration (Figure 2A,B). […] After confirming that these analogs could prevent RhoA activation and the phosphorylation of the MLC, their ability to disrupt complex-formation between RhoA and LARG was tested. […] These findings indicate that the active analogs inhibit RhoA activation by disrupting the binding between RhoA and its GEF.
(A,B) Washed human platelets were incubated with collagen (1 µg/mL) for 4 min, and the levels of RhoA-GTP formation were quantified with a GST-Rhotekin effector pull-down assay. The platelets were pre-incubated with 20 µM UC-177618, UC-177619, UC-177628, UC-177629, […], or […] for 2 min before being stimulated with collagen. The addition of ice-cold lysis buffer terminated the reaction. […] Relative amounts of the GTP-bound form of RhoA were quantified with densitometry measurements of total RhoA (T-RhoA) and normalized to untreated platelets. (C,D) The addition of 20 µM of active Rhosin-related compounds to washed human platelets 2 min before stimulation with collagen blocked the phosphorylation of the myosin light chain (p-MLC). The reactions were terminated after 4 min by adding 4x Laemmli sample buffer. The samples were processed for Western blotting and probed for MLC and p-MLC, and phosphorylation was quantified by measuring the densitometry of total MLC (T-MLC). The differences between DMSO- and Rhosin-related compounds were analyzed with t-test, and the results are shown as means ± SDs of three independent experiments. (* p < 0.05, ** p < 0.01, *** p < 0.001, and **** p < 0.0001).
The relative levels of RhoA-GTP in washed human platelets were quantified with effector domains GST-Rhotekin pull-down assays as previously reported. A volume of 250 µL of washed human platelets (2.5 × 10^8/mL) was pre-warmed to 37 °C along with the compounds or DMSO (0.1%) for 2 min before being stimulated with collagen (1 µg/mL). The reactions were terminated 4 min after collagen stimulation by adding ice-cold lysis buffer (20 mM Tris·HCl (pH 7.6), 100 mM NaCl, 1% Triton X-100, 0.2% Sodium Deoxycholate, 10 mM MgCl2, 1 mM dithiothreitol, 1x protease inhibitor cocktail, and 1x phosphatase inhibitor cocktail). The supernatants were collected and subjected to the GST-Rhotekin pull-down assay. The total cell lysates were also blotted in parallel. GTP-bound RhoA was quantitatively detected with Western blotting using an anti-RhoA antibody. The relative amounts of RhoA were quantified with densitometry measurements and normalized to the untreated platelets.

[1] = collagen 1 µg/mL, washed human platelets, dose-response curves, read-out: IC50 (95% CI) of platelet aggregation
[2] = collagen-induced platelet aggregation, compounds without IC50 determination estimated from percent inhibition at 20 µM, read-out: IC50 (SAR table)
[3] = washed human platelets, read-out: % Platelet Aggregation, Collagen (1 µg/mL)
[4] = washed human platelets, read-out: % Platelet Aggregation, Collagen (5 µg/mL)

| Structure (SMILES) | IC50 (washed human platelets; [1]) [µM] | IC50 (washed human platelets; [2]) [µM] | activity at 20 µM (washed human platelets; [3]) [%] | activity at 20 µM (washed human platelets; [4]) [%] | RhoA-GTP formation (RhoA) | activity in collagen-induced platelet aggregation (SAR statement) (washed human platelets; relative to the quinoline analogs) |
| --- | --- | --- | --- | --- | --- | --- |
| Cc1ccc(C(=O)NNc2ccnc3c(C(F)(F)F)cccc23)cc1 [UC-177633] | 2.38 | 2.34 | 3.3 ± 3.2 | 10.1 ± 8.3 | inhibited RhoA-GTP formation | – |
| Cc1ccc(C(=O)NNc2ccnc3cc(Cl)ccc23)cc1 [UC-177634] | – | 4.59 | 17 ± 2.6 | 24.5 ± 3.9 | – | – |
| Cc1ccc(C(=O)NNc2cc(C)c3ccccc3n2)cc1 [UC-177635] | – | > 20 | 79.1 ± 7 | 90.1 ± 8.3 | – | – |
| O=C1OCCN1NC1CCOc2ccc(-n3cc[nH]c3=S)cc21 (centres unmarked) [UC-177639] | – | – | 80 ± 17.3 | 90.4 ± 9.1 | – | – |
| O=C(NNC1CCc2ccccc21)c1cc2ccccc2[nH]1 (centres unmarked) [UC-178838] | – | 3.55 | 7.3 ± 5.8 | 13.7 ± 7.9 | – | nearly equipotent |
| Cc1[nH]c2ccccc2c1/C=N/NC(=O)c1cccnc1 [UC-390484] | – | – | 81 ± 14 | 88.1 ± 10 | – | – |
| COc1ccc2cc(/C=N/NC(=O)Cc3c[nH]c4ccccc34)ccc2c1 [UC-391695] | – | – | 79 ± 8 | 84.8 ± 12.1 | – | – |
| COc1cc(/C=N/NC(=O)C2COc3ccccc3O2)ccc1O (centres unmarked) [UC-392453] | – | – | 90.7 ± 8.5 | 94.7 ± 11.2 | – | – |
| O=S(=O)(Nc1cc(C(F)(F)F)ccc1Cl)c1cccc2cccnc12 [UC-406794] | 5.2 | – | 12.7 ± 7.2 | 25 ± 5.2 | – | – |
| Cc1ccc(C)c(OCC(=O)N/N=C/c2cn(Cc3ccccc3)c3ccccc23)c1C [UC-436352] | – | – | 84.7 ± 15.5 | 89 ± 2.5 | – | – |
| O=C(N/N=C/c1ccc(O)cc1)c1cc2ccccc2[nH]1 [UC-612333] | – | – | 70 ± 5.6 | 78.6 ± 14.9 | – | – |
| CN(Cc1ccccc1)C(=O)C(N)Cc1c[nH]c2ccccc12 (centres unmarked) [UC-651009] | – | – | 86 ± 1.7 | 89.2 ± 10.6 | – | – |
| N[C@@H](Cc1c[nH]c2ccccc12)C(=O)Nc1ccc2oc(C(=O)O)cc2c1 [UC-830013] | – | – | 93 ± 10.8 | 91.3 ± 14.7 | – | – |
| S=C(NNc1ccnc2cc(Cl)ccc12)Nc1ccccc1Cl [UC-936377] | – | – | 61.3 ± 4.5 | 71.7 ± 5.3 | – | – |
| Cc1[nH]c2ccccc2c1CCNC(=O)c1ccc2nccnc2c1 [UC-984842] | – | – | 91.3 ± 10.5 | 95.9 ± 6.2 | – | – |
